# Test results published in PubChem BioAssay AID2060912 (Molecular Pharmacology Branch, DTP, NCI, 2025).
# System: HUVEC/MSC spheroids viability
# Test: Human HUVEC/MSC cell line growth inhibition [KRAS2];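 for viability, T/C: percent of DMSO vehicle control luminescence so 100% = untreated viability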
# Details: for viability, T/C: stronger effect = lower value
# Outline: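 Concentration ranges start near each agent's clinical Cmax, or at 10 microM if none is established, and fall by half-log increments. These ranges are tested as single agents and combinations on endothelial/mesenchymal stem cell spheroids lacking tumour cells.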
# [1] = curve of first compound, second compound 0.0316 µM
# [2] = curve of first compound, second compound 0.1 µM
# [3] = curve of first compound, second compound 0.316 µM
# [4] = curve of first compound, second compound 1 µM
# [5] = curve of first compound, second compound 3.16 µM
# [6] = curve of first compound, second compound 10 µM
# [7] = second compound 0.0316 µM, first compound 0.0316 µM
# [8] = second compound 0.0316 µM, first compound 0.1 µM
# [9] = second compound 0.0316 µM, first compound 0.316 µM
# [10] = second compound 0.0316 µM, first compound 1 µM
# [11] = second compound 0.0316 µM, first compound 3.16 µM
# [12] = second compound 0.0316 µM, first compound 10 µM
# [13] = second compound 0.1 µM, first compound 0.0316 µM
# [14] = second compound 0.1 µM, first compound 0.1 µM
# [15] = second compound 0.1 µM, first compound 0.316 µM
# [16] = second compound 0.1 µM, first compound 1 µM
# [17] = second compound 0.1 µM, first compound 3.16 µM
# [18] = second compound 0.1 µM, first compound 10 µM
# [19] = second compound 0.316 µM, first compound 0.0316 µM
# [20] = second compound 0.316 µM, first compound 0.1 µM
# [21] = second compound 0.316 µM, first compound 0.316 µM
# [22] = second compound 0.316 µM, first compound 1 µM
# [23] = second compound 0.316 µM, first compound 3.16 µM
# [24] = second compound 0.316 µM, first compound 10 µM
# [25] = second compound 1 µM, first compound 0.0316 µM
# [26] = second compound 1 µM, first compound 0.1 µM
# [27] = second compound 1 µM, first compound 0.316 µM
# [28] = second compound 1 µM, first compound 1 µM
# [29] = second compound 1 µM, first compound 3.16 µM
# [30] = second compound 1 µM, first compound 10 µM
# [31] = second compound 3.16 µM, first compound 0.0316 µM
# [32] = second compound 3.16 µM, first compound 0.1 µM
# [33] = second compound 3.16 µM, first compound 0.316 µM
# [34] = second compound 3.16 µM, first compound 1 µM
# [35] = second compound 3.16 µM, first compound 3.16 µM
# [36] = second compound 3.16 µM, first compound 10 µM
# [37] = second compound 10 µM, first compound 0.0316 µM
# [38] = second compound 10 µM, first compound 0.1 µM
# [39] = second compound 10 µM, first compound 0.316 µM
# [40] = second compound 10 µM, first compound 1 µM
# [41] = second compound 10 µM, first compound 3.16 µM
# [42] = second compound 10 µM, first compound 10 µM
smiles,measurement,setting,value
CC1COCCN1c1cc(-c2ccnn2C)c2ccnc(-c3ccn[nH]3)c2n1 (stereo not given) + C=CC(=O)N1CCN(c2nc(=O)n(-c3c(C)ccnc3C(C)C)c3nc(-c4c(O)cccc4F)c(F)cc23)C(C)C1,IC50,[1],2.52 µM
same,IC50,[2],> 3 µM
same,IC50,[3],2.75 µM
same,IC50,[4],> 3 µM
same,IC50,[5],> 3 µM
same,IC50,[6],> 3 µM
same,"viability, T/C","second compound 0.0316 µM, first compound 0.00949 µM",82.3%
same,"viability, T/C","second compound 0.0316 µM, first compound 0.03 µM",97.5%
same,"viability, T/C","second compound 0.0316 µM, first compound 0.0949 µM",75%
same,"viability, T/C","second compound 0.0316 µM, first compound 0.3 µM",73.2%
same,"viability, T/C","second compound 0.0316 µM, first compound 0.949 µM",64.6%
same,"viability, T/C","second compound 0.0316 µM, first compound 3 µM",47.4%
same,"viability, T/C","second compound 0.1 µM, first compound 0.00949 µM",113%
same,"viability, T/C","second compound 0.1 µM, first compound 0.03 µM",83.7%
same,"viability, T/C","second compound 0.1 µM, first compound 0.0949 µM",96.6%
same,"viability, T/C","second compound 0.1 µM, first compound 0.3 µM",83.2%
same,"viability, T/C","second compound 0.1 µM, first compound 0.949 µM",50.7%
same,"viability, T/C","second compound 0.1 µM, first compound 3 µM",51.8%
same,"viability, T/C","second compound 0.316 µM, first compound 0.00949 µM",114%
same,"viability, T/C","second compound 0.316 µM, first compound 0.03 µM",105%
same,"viability, T/C","second compound 0.316 µM, first compound 0.0949 µM",94.2%
same,"viability, T/C","second compound 0.316 µM, first compound 0.3 µM",75.5%
same,"viability, T/C","second compound 0.316 µM, first compound 0.949 µM",63.3%
same,"viability, T/C","second compound 0.316 µM, first compound 3 µM",48.6%
same,"viability, T/C","second compound 1 µM, first compound 0.00949 µM",108%
same,"viability, T/C","second compound 1 µM, first compound 0.03 µM",119%
same,"viability, T/C","second compound 1 µM, first compound 0.0949 µM",96.2%
same,"viability, T/C","second compound 1 µM, first compound 0.3 µM",76.3%
same,"viability, T/C","second compound 1 µM, first compound 0.949 µM",76%
same,"viability, T/C","second compound 1 µM, first compound 3 µM",54.6%
same,"viability, T/C","second compound 3.16 µM, first compound 0.00949 µM",103%
same,"viability, T/C","second compound 3.16 µM, first compound 0.03 µM",117%
same,"viability, T/C","second compound 3.16 µM, first compound 0.0949 µM",101%
same,"viability, T/C","second compound 3.16 µM, first compound 0.3 µM",88.5%
same,"viability, T/C","second compound 3.16 µM, first compound 0.949 µM",73.2%
same,"viability, T/C","second compound 3.16 µM, first compound 3 µM",74.8%
same,"viability, T/C","second compound 10 µM, first compound 0.00949 µM",121%
same,"viability, T/C","second compound 10 µM, first compound 0.03 µM",123%
same,"viability, T/C","second compound 10 µM, first compound 0.0949 µM",115%
same,"viability, T/C","second compound 10 µM, first compound 0.3 µM",102%
same,"viability, T/C","second compound 10 µM, first compound 0.949 µM",72%
same,"viability, T/C","second compound 10 µM, first compound 3 µM",77.1%
CC1(C)CCC(CN2CCN(c3ccc(C(=O)NS(=O)(=O)c4ccc(NCC5CCOCC5)c([N+](=O)[O-])c4)c(Oc4cnc5[nH]ccc5c4)c3)CC2)=C(c2ccc(Cl)cc2)C1,"viability, T/C",compound 0.0316 µM,90.6% [middle of 5 runs]
same,"viability, T/C",compound 0.1 µM,95.1% [middle of 5 runs]
same,"viability, T/C",compound 0.316 µM,83% [middle of 5 runs]
same,"viability, T/C",compound 1 µM,90.2% [middle of 5 runs]
same,"viability, T/C",compound 3.16 µM,69% [middle of 5 runs]
same,"viability, T/C",compound 10 µM,4.4% [middle of 5 runs]
same,IC50,curve of compound,4.56 µM [middle of 4 runs]
CC1(C)CCC(CN2CCN(c3ccc(C(=O)NS(=O)(=O)c4ccc(NCC5CCOCC5)c([N+](=O)[O-])c4)c(Oc4cnc5[nH]ccc5c4)c3)CC2)=C(c2ccc(Cl)cc2)C1 + COc1cc2nc(C)nc(NC(C)c3cc(N)cc(C(F)(F)F)c3)c2cc1OC1CCOC1,IC50,[1],5.09 µM
same,IC50,[2],4.59 µM
same,IC50,[3],4.78 µM
same,IC50,[4],5.01 µM
same,IC50,[5],5.49 µM
same,IC50,[6],4.61 µM
same,"viability, T/C",[7],105%
same,"viability, T/C",[8],116%
same,"viability, T/C",[9],105%
same,"viability, T/C",[10],96.6%
same,"viability, T/C",[11],82.3%
same,"viability, T/C",[12],6.99%
same,"viability, T/C",[13],98.5%
same,"viability, T/C",[14],94.6%
same,"viability, T/C",[15],102%
same,"viability, T/C",[16],100%
same,"viability, T/C",[17],72.8%
same,"viability, T/C",[18],2.34%
same,"viability, T/C",[19],82.7%
same,"viability, T/C",[20],104%
same,"viability, T/C",[21],76.6%
same,"viability, T/C",[22],81.5%
same,"viability, T/C",[23],76.3%
same,"viability, T/C",[24],5.03%
same,"viability, T/C",[25],95.7%
same,"viability, T/C",[26],79.5%
same,"viability, T/C",[27],84%
same,"viability, T/C",[28],92%
same,"viability, T/C",[29],81%
same,"viability, T/C",[30],3.29%
same,"viability, T/C",[31],73.1%
same,"viability, T/C",[32],105%
same,"viability, T/C",[33],110%
same,"viability, T/C",[34],95.2%
same,"viability, T/C",[35],87.7%
same,"viability, T/C",[36],8.97%
same,"viability, T/C",[37],61.3%
same,"viability, T/C",[38],70.5%
same,"viability, T/C",[39],78.9%
same,"viability, T/C",[40],68.2%
same,"viability, T/C",[41],80.6%
same,"viability, T/C",[42],5.02%
COc1cc(Nc2ncc3c(n2)-c2ccc(Cl)cc2C(c2c(F)cccc2OC)=NC3)ccc1C(=O)O + CNCc1ccccc1-c1csc(C(C)Nc2nc(C)nc3cc(OC)c(OC)cc23)c1,IC50,[1],9.93 µM
same,IC50,[2],> 10 µM
same,IC50,[3],8.79 µM
same,IC50,[4],9.31 µM
same,IC50,[5],> 10 µM
same,IC50,[6],< 0.0316 µM
same,"viability, T/C",[7],92.9%
same,"viability, T/C",[8],104%
same,"viability, T/C",[9],101%
same,"viability, T/C",[10],87.3%
same,"viability, T/C",[11],84.6%
same,"viability, T/C",[12],49.2%
same,"viability, T/C",[13],93.2%
same,"viability, T/C",[14],80.8%
same,"viability, T/C",[15],98%
same,"viability, T/C",[16],80.3%
same,"viability, T/C",[17],84%
same,"viability, T/C",[18],56.7%
same,"viability, T/C",[19],71.1%
same,"viability, T/C",[20],90.8%
same,"viability, T/C",[21],79.5%
same,"viability, T/C",[22],73.3%
same,"viability, T/C",[23],83.7%
same,"viability, T/C",[24],46.3%
same,"viability, T/C",[25],75.5%
same,"viability, T/C",[26],76.6%
same,"viability, T/C",[27],97.3%
same,"viability, T/C",[28],74.5%
same,"viability, T/C",[29],92.4%
same,"viability, T/C",[30],47.8%
same,"viability, T/C",[31],101%
same,"viability, T/C",[32],106%
same,"viability, T/C",[33],97.8%
same,"viability, T/C",[34],90.4%
same,"viability, T/C",[35],100%
same,"viability, T/C",[36],50.7%
same,"viability, T/C",[37],0.4%
same,"viability, T/C",[38],0.4%
same,"viability, T/C",[39],0.37%
same,"viability, T/C",[40],0.36%
same,"viability, T/C",[41],0.41%
same,"viability, T/C",[42],0.32%
CC1OCC2(CCN(c3cnc(Sc4ccnc(N)c4Cl)c(N)n3)CC2)C1N (stereo not given) + COc1cc2nc(C)nc(NC(C)c3cc(N)cc(C(F)(F)F)c3)c2cc1OC1CCOC1,IC50,[1],6.36 µM
same,IC50,[2],6.22 µM
same,IC50,[3],> 10 µM
same,IC50,[4],6.15 µM
same,IC50,[5],5.19 µM
same,IC50,[6],3.73 µM
same,"viability, T/C",[7],101%
same,"viability, T/C",[8],111%
same,"viability, T/C",[9],91.8%
same,"viability, T/C",[10],64.4%
same,"viability, T/C",[11],70.6%
same,"viability, T/C",[12],40.4%
same,"viability, T/C",[13],115%
same,"viability, T/C",[14],90.7%
same,"viability, T/C",[15],76.8%
same,"viability, T/C",[16],72.4%
same,"viability, T/C",[17],63%
same,"viability, T/C",[18],40.8%
same,"viability, T/C",[19],80.7%
same,"viability, T/C",[20],95.2%
same,"viability, T/C",[21],88%
same,"viability, T/C",[22],63.1%
same,"viability, T/C",[23],60.2%
same,"viability, T/C",[24],54.2%
same,"viability, T/C",[25],83.6%
same,"viability, T/C",[26],100%
same,"viability, T/C",[27],67.5%
same,"viability, T/C",[28],72.3%
same,"viability, T/C",[29],57.9%
same,"viability, T/C",[30],44.3%
same,"viability, T/C",[31],82%
same,"viability, T/C",[32],86.8%
same,"viability, T/C",[33],86.9%
same,"viability, T/C",[34],65%
same,"viability, T/C",[35],59.2%
same,"viability, T/C",[36],41.5%
same,"viability, T/C",[37],68.7%
same,"viability, T/C",[38],73.8%
same,"viability, T/C",[39],69.8%
same,"viability, T/C",[40],59%
same,"viability, T/C",[41],56.7%
same,"viability, T/C",[42],27%
